Test [1] relates to Streptococcus mutans. Nature of the test: Tooth plaque formation inhibition, crystal violet A570 (Test Examples 3 and 4). The note with it: 1% concentration sucrose (sample 8); BHI medium, 37° C., 48 hours. It is filed as cell-based. The procedure:
A basic sample (a sample 8) was produced by impregnating 1% concentration sucrose (white sugar) in a BHI medium of twice the normal concentration and adding 0.1 mL of Streptococcus mutans liquid (approximately 1000 bacterial bodies) thereto. Next, another sample (a sample 9) in which the sucrose (white sugar) was not at all impregnated in the basic sample (the sample 8) was produced. There were also individually produced a sample (10) in which 10% of the potato syrup of Example 1-A was added instead of the 1% concentration sucrose (white sugar) to the basic sample (the sample 8), a sample (11) in which 10% of the potato syrup of Example 1-B was added instead of the 1% concentration sucrose (white sugar) to the basic sample (the sample 8), and a sample (12) in which 10% of the potato syrup of Example 1-C was added instead of the 1% concentration sucrose (white sugar) to the basic sample (the sample 8). The respective samples were subject to a culture process at 37° C. for 48 hours. […] Then, the pigment was eluted with 0.2 mL of 99.5% ethanol, and the absorbance (570 nm) was measured. Based on the results, the plaque (tooth plaque) formation inhibition rates (%) were calculated. The results are shown in FIG. 3. plaque formation inhibition rate (%)=[A570(no sucrose added)−A570 (sample added)]/A570(no sucrose added)×100 A570: absorbance of crystal violet eluted with ethanol at 570 nm. […]

In test [2] the test system is Streptococcus mutans. The test can be described thus: Tooth plaque formation inhibition by potato syrup with malt, crystal violet A570 (Test Example 6). The note with it: 1% concentration sucrose; BHI medium, 37° C., 48 hours. Type of test: cell-based. The procedure:
A basic sample was produced by impregnating 1% concentration sucrose (white sugar) in a BHI medium and adding 0.1 mL of Streptococcus mutans liquid (approximately 1000 bacterial bodies) thereto. Next, another additive-free sample in which the sucrose (white sugar) was not at all impregnated in the basic sample was produced. There were also individually produced a sample in which 10% of the potato syrup with malt of Example 3 was added instead of the 1% concentration sucrose (white sugar) to the basic sample and a sample in which 10% of the potato syrup of Example 1-B was added instead of the 1% concentration sucrose (white sugar) to the basic sample. The respective samples were subject to a culture process at 37° C. for 48 hours. Afterwards, the supernatant liquids of the culture fluids were discarded, and then, the respective samples were washed twice with 0.2 mL of distilled water. Afterwards, 0.2 mL each of 0.1% crystal violet were added to each of the samples, a stir staining operation was performed for 20 minutes, and then, the staining fluids were discarded. The residues were washed twice with 0.2 mL of distilled water. Then, the pigment was eluted with 0.2 mL of 99.5% ethanol and the absorbance (570 nm) was measured. Based on the results, the plaque (tooth plaque) formation inhibition rates (%) were calculated.

These results are taken from patent publication US20230372232A1, “ORAL CARE COMPOSITION COMPRISING SWEET POTATO-DERIVED POTATO SYRUP OR SUPERNATANT OF POTATO SYRUP” (KARAIMO NOJYO CO., LTD., priority 2020, published 2023).

As for `OC[C@H]1O[C@@](CO)(O[C@H]2O[C@H](CO)[C@@H](O)[C@H](O)[C@H]2O)[C@@H](O)[C@@H]1O` [sucrose], the “plaque (tooth plaque) formation” value in the test on Streptococcus mutans [1] and with Streptococcus mutans [2] was “the plaque (tooth plaque) rapidly grew” throughout.
